Patent publication US6989389B2, “Aryl ether substituted imidazoquinolines” (3M Innovative Properties Co., priority 2000, dated 2006)
Like-named read-outs stand apart in the source and are kept apart here.

How the values were obtained:
[1] = system: Peripheral blood mononuclear cells (PBMC); assay: Cytokine Induction in Human Cells (in vitro human blood cell system, IFN and TNF secreted into culture media); assay type: cell-based; parameters: key to Lowest Effective Concentration (μM) Tumor Necrosis Factor / Lowest Effective Concentration (μM) Interferon: *: no induction was seen at any of the tested concentrations; conditions: 18 to 24 hours, tested 30-0.014 μM
Procedure, shortened: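 Human donor PBMC (2×10^6 cells/mL, RPMI complete) incubated 18–24 h at 37 °C, 5% CO2 with compound, 3-fold dilutions 30–0.014 μM, ≤1% DMSO. IFN-α measured by ELISA, TNF-α by ELISA or IGEN immunoassay in supernatants (pg/mL). Value is lowest concentration inducing each cytokine.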

[2] = Homo sapiens, PBMC, lowest concentration found to induce interferon (α), ELISA, read-out: Lowest Effective Concentration (μM) Interferon
[3] = Homo sapiens, PBMC, lowest concentration found to induce tumor necrosis factor (α), ELISA or IGEN assay, read-out: Lowest Effective Concentration (μM) Tumor Necrosis Factor
[4] = lowest concentration found to induce interferon (α), ELISA
[5] = lowest concentration found to induce tumor necrosis factor (α), ELISA or IGEN assay

## CC(C)Cc1nc2c(N)nc3ccccc3c2n1CCOc1ccccc1 [Example 130, 2-Isobutyl-1-(2-phenoxyethyl)-1H-imidazo[4,5-c]quinolin-4-amine]
[1]; [2]
  minimal effective concentration: 3.33 µM
[1]; [3]
  minimal effective concentration: 3.33 µM
other
  melting point: 176.6 to 177.8 °C

## Nc1nc2ccccc2c2c1ncn2CCOCC#Cc1ccccc1 [Example 3, 1-{2-[(3-Phenyl-2-propynyl)oxy]ethyl}-1H-imidazo[4,5-c]quinolin-4-amine]
[1]; [2]
  minimal effective concentration: 0.12 µM
[1]; [3]
  minimal effective concentration: 3.33 µM
other
  melting point: 196 to 197 °C

## Nc1nc2ccccc2c2c1nc(C1CCOC1)n2CCOc1ccccc1 (stereo not drawn) [Example 139, 1-(2-Phenoxyethyl)-2-tetrahydrofuran-3-yl-1H-imidazo[4,5-c]quinolin-4-amine]
[1]; [4]
  Lowest Effective Concentration (μM) Interferon: *
[1]; [5]
  Lowest Effective Concentration (μM) Tumor Necrosis Factor: *
other
  melting point: 235.9 to 236.3 °C

## Cc1nc2c(N)nc3ccccc3c2n1CCCOCCCc1ccccc1 [Example 148, 2-Methyl-1-[3-(3-phenylpropoxy)propyl]-1H-imidazo[4,5-c]quinolin-4-amine]
[1]; [2]
  minimal effective concentration: 1.11 µM
[1]; [3]
  minimal effective concentration: 1.11 µM
other
  melting point: 145 to 146.1 °C

## COCCc1nc2c(N)nc3ccccc3c2n1CCOc1ccccc1 [Example 129, 2-(2-Methoxyethyl)-1-(2-phenoxyethyl)-1H-imidazo[4,5-c]quinolin-4-amine]
[1]; [2]
  minimal effective concentration: 0.01 µM
[1]; [3]
  minimal effective concentration: 0.04 µM
other
  melting point: 171 to 174 °C

## CCCCCCCCc1nc2c(N)nc3ccccc3c2n1CCOCCCc1ccccc1 [Example 117, 2-Octyl-1-[2-(3-phenylpropoxy)ethyl]-1H-imidazo[4,5-c]quinolin-4-amine]
[1]; [4]
  Lowest Effective Concentration (μM) Interferon: *
[1]; [5]
  Lowest Effective Concentration (μM) Tumor Necrosis Factor: *
other
  melting point: 103.8 to 104.5 °C

## Nc1nc2ccccc2c2c1ncn2COCc1ccccc1 [Example 113, 1-[(Benzyloxy)methyl]-1H-imidazo[4,5-c]quinolin-4-amine]
[1]; [2]
  minimal effective concentration: 1.11 µM
[1]; [5]
  Lowest Effective Concentration (μM) Tumor Necrosis Factor: *
other
  melting point: 168 to 172 °C

## COCCc1nc2c(N)nc3ccccc3c2n1CCOCC#Cc1ccccc1 [Example 120, 2-(Methoxyethyl)-1-{2-[(3-phenylprop-2-ynyl)oxy]ethyl}-1H-imidazo[4,5-c]quinolin-4-amine]
[1]; [2]
  minimal effective concentration: 0.01 µM
[1]; [3]
  minimal effective concentration: 0.01 µM
other
  melting point: 134.5 to 135.5 °C

## Cc1nc2c(N)nc3ccccc3c2n1CCCCOCC#Cc1ccccc1 [Example 149, 2-Methyl-1-{4-[(3-phenylprop-2-ynyl)oxy]butyl}-1H-imidazo[4,5-c]quinolin-4-amine]
[1]; [2]
  minimal effective concentration: 0.041 µM
[1]; [3]
  minimal effective concentration: 0.37 µM
other
  melting point: 109.2 to 110 °C

## CCOCc1nc2c(N)nc3ccccc3c2n1CCOCC#Cc1ccccc1 [Example 122, 2-(Ethoxymethyl)-1-{2-[(3-phenylprop-2-ynyl)oxy]ethyl}-1H-imidazo[4,5-c]quinolin-4-amine]
[1]; [2]
  minimal effective concentration: 0.01 µM
[1]; [3]
  minimal effective concentration: 0.12 µM
other
  melting point: 110.8 to 111.7 °C

## CC(C)c1nc2c(N)nc3ccccc3c2n1CCOc1ccccc1 [Example 131, 2-Isopropyl-1-(2-phenoxyethyl)-1H-imidazo[4,5-c]quinolin-4-amine]
[1]; [3]
  minimal effective concentration: 10 µM
[1]; [4]
  Lowest Effective Concentration (μM) Interferon: *
other
  melting point: 229 to 231 °C

## CCC(COCc1ccc(C#N)cc1)n1cnc2c(N)nc3ccccc3c21 (stereo not drawn) [Example 141, 4-{[2-(4-Amino-1H-imidazo[4,5-c]quinolin-1-yl)butoxy]methyl}benzonitrile]
[1]; lowest concentration found to induce interferon (α), ELISA, read-out: Lowest Effective Concentration (μM) Interferon
  minimal effective concentration: 0.12 µM
[1]; lowest concentration found to induce tumor necrosis factor (α), ELISA or IGEN assay, read-out: Lowest Effective Concentration (μM) Tumor Necrosis Factor
  minimal effective concentration: 0.12 µM
other
  melting point: 160 to 161 °C

## Nc1nc2ccccc2c2c1nc(COc1ccccc1)n2CCOc1ccccc1 [Example 133, 1-(2-Phenoxyethyl)-2-(phenoxymethyl)-1H-imidazo[4,5-c]quinolin-4-amine]
[1]; [2]
  minimal effective concentration: 3.33 µM
[1]; [5]
  Lowest Effective Concentration (μM) Tumor Necrosis Factor: *
other
  melting point: 168.5 to 170 °C
